Literature values, collected in patent publication US7204982B2, “Compositions and methods for treatment and detection of multiple cancers” (The Regents of the University of California, priority 2002, dated 2007).
Where a name gives a salt, the structure may show the parent alone.

How the values were obtained:
malignant gliomas = details: high doses, orally administered; Couldwell et al. 1996
[1] = tested on: human glioblastoma cell lines (U87, U373, and U138); details: cell lines lack detectable estrogen receptor expression

CC/C(=C(\c1ccccc1)c1ccc(OCCN(C)C)cc1)c1ccccc1 [tamoxifen, (Z)-2[p[(1,2-diphenyl-1-butenyl)phenoxyl]-N,N-dimethylamine citrate]
clinical benefit (malignant gliomas): of benefit in some patients with malignant gliomas | cytotoxicity [1]: responsive to tamoxifen cytotoxicity
